Measured values: patent US5229368A, “Composition for prevention and (or) treatment of Aids” (Fujisawa Pharmaceutical Co., Ltd., priority 1987, dated 1993)

What was measured:
[1] = tested on: Friend leukemia virus; assay: Test 1: splenomegaly by Friend leukemia virus in mice (severe infection); type: in vivo, C3H/HeN mice
Description: (§1) Animals: Male C3H/HeN strain mice aged 5 weeks were used in groups of 10. The animals were housed in an isolation room at 21°-25° C. and supplied with food and water at libitum.
Virus and Induction of splenomegaly: Friend leukemia virus (FLV) was prepared as a 10% suspension of infected C3H/HeN spleen in Hank's balanced saline and was originally supplied by Kitazato University. Following centrifugation (7,000 rpm for 20 mins.) the virus preparation was frozen and stored at -70° C. 0.2 ml/head of FLV diluted 2-, 5-, or 10-fold to induce infection of varying severity was challenged intraperitoneally in mice. […]

[2] = tested on: Friend leukemia virus; assay: Test 2: splenomegaly by FLV in mice, same method as Test 1 with other doses; type: in vivo, C3H/HeN mice; conditions: day 14
Description: as §1
Virus and Induction of splenomegaly: Friend leukemia virus (FLV) was prepared as a 10% suspension of infected C3H/HeN spleen in Hank's balanced saline and was originally supplied by Kitazato University. Following centrifugation (7,000 rpm for 20 mins.) the virus preparation was frozen and stored at -70° C. 0.2 ml/head of FLV diluted 2-, 5-, or 10-fold to induce infection of varying severity was challenged intraperitoneally in mice.
Dosing schedules: FK-565 was given intravenously or orally in doses of 0.01 mg/kg to 1 mg/kg 4 hours after challenge and once on days 3, 7, 11 (total 4 doses).

[3] = tested on: Friend leukemia virus; assay: Test 3: survival rate of mice in lethal FLV infection; type: in vivo; conditions: 42 days
Description: Friend leukemia virus FLV) was prepared as a 20% suspension of infected C3H/HeN spleen in Hank's balanced saline and 0.2 ml/head of the FLV preparation was challenged intraperitoneally to mice in groups of 12. The viruses were challenged in amounts large enough to cause death within a short time.
FK-565 (1, 0.01 mg/kg) was given intravenously once a day on days 1, 4, 7, 11, 14, 18, 21 and 25 (total: 8 doses).
The mice were given the two drugs according to the same dosing schedules.

[4] = tested on: Rauscher murine leukemia virus complex(RLV); conditions: mice infected with RLV; cited from earlier work
[5] = therapeutic dose of AZT; cited from earlier work
[6] = FK-565 0.01 mg/kg i.v. alone, day 14
[7] = FK-565 0.1 mg/kg i.v. alone, day 14
[8] = FK-565 0.1 mg/kg p.o. alone, day 14
[9] = FK-565 0.01 mg/kg i.v., AZT 0 mg/kg
[10] = FK-565 1 mg/kg i.v., AZT 0 mg/kg

## Cc1cn([C@H]2C[C@H](N=[N+]=[N-])[C@@H](CO)O2)c(=O)[nH]c1=O [AZT, 3'-Azido-3'-deoxythymidine]
[1]; AZT 5 mg/kg i.p. alone, day 14
  Inhibition %: 24.8%
  Spleen weight: 1107.8 ± 158.3 mg
[1]; AZT 20 mg/kg i.p. alone, 27 doses, FLV 2-fold dilution, 14 days after infection
  Spleen weight: 944.0 ± 104.9 mg
[1]; AZT 20 mg/kg i.p. alone, day 14
  Inhibition %: 38.1%
[2]; AZT 0.63 mg/kg i.p. alone
  (%) inhibition of splenomegaly: 33.3%
  Spleen: 633 ± 67.6 mg
[2]; AZT 2.5 mg/kg i.p. alone
  (%) inhibition of splenomegaly: 38.3%
  Spleen: 605 ± 134.9 mg
[2]; AZT 10 mg/kg i.p. alone
  (%) inhibition of splenomegaly: 49.3%
  Spleen: 519 ± 130.6 mg
[2]; AZT 40 mg/kg i.p. alone
  (%) inhibition of splenomegaly: 81.1%
  Spleen: 267 ± 51.6 mg
[2]; AZT 160 mg/kg i.p. alone
  (%) inhibition of splenomegaly: 97.4%
[3]; AZT 4 mg/kg/time i.p., FK-565 0
  survival rate: 0
[3]; AZT 20 mg/kg/time i.p., FK-565 0
  survival rate: 25
[3]; AZT 100 mg/kg/time i.p., FK-565 0
  survival rate: 50
[4]
  survival time in infected mice: prolong significantly the survival time
[5]
  side effects: anemia, leukopenia, neutropenia and occasional thrombocytopenia

## CCCCCCC(=O)N[C@H](CCC(=O)N[C@@H](CCC[C@@H](N)C(=O)O)C(=O)N[C@H](C)C(=O)O)C(=O)O [FK-565]
[1]; [6]
  Inhibition %: 36.4%
  Spleen weight: 1047.0 ± 106.1 mg
[1]; [7]
  Inhibition %: 37.0%
  Spleen weight: 1038.0 ± 176.8 mg
[1]; [8]
  Inhibition %: 27.8%
  Spleen weight: 1133.0 ± 170.0 mg
[1]; FK-565 1 mg/kg i.v. alone, 4 doses, day 14
  Spleen weight: 947.0 ± 124.1 mg
[1]; FK-565 1 mg/kg i.v. alone, day 14
  Inhibition %: 46.5%
[1]; FK-565 1 mg/kg p.o. alone, 4 doses, day 14
  Spleen weight: 984.0 ± 144.8 mg
[1]; FK-565 1 mg/kg p.o. alone, day 14
  Inhibition %: 38.9%
[2]; [9]
  (%) inhibition of splenomegaly: 19.6%
  Spleen: 750 ± 119.0 mg
[2]; [10]
  (%) inhibition of splenomegaly: 55.3%
  Spleen: 487 ± 47.3 mg
[3]; FK-565 0.01 mg/kg/time i.v., AZT 0
  survival rate: 8
[3]; FK-565 1 mg/kg/time i.v., AZT 0
  survival rate: 17
